The test system of one series is S.D. rats. Kind of series: Post-MI chronic heart failure model. Type of series: in vivo, rat. The following applies: for Fractional shortening / Left ventricular ejection fraction: 12 weeks after coronary artery ligation.
The test system of series [1] is neonatal rat cardiomyocytes. Kind of series: Angiotensin II-induced cellular hypertrophy in neonatal cardiomyocytes. The following applies: 0.1 µM angiotensin II, 4 days.
The subject of another series is HDAC5 phosphorylation. Kind of series: Angiotensin II-induced HDAC5 phosphorylation in neonatal cardiomyocytes. The following applies: 0.1 µM angiotensin II.
A further series concerns C57BL/6 mice. Kind of series: Transverse aortic constriction. The following applies: 30 mg/kg daily oral, 14 days.
A further series in a line: Cytotoxicity, VERO. It counts as cell-based. The following applies: African green monkey, VERO cells.
A further series is described as follows: Cytotoxicity, NIH3T3. It counts as cell-based. As to conditions: mouse, NIH3T3 cells.
The next series has as its target T1, GRK2 (Homo sapiens, UniProt P25098).
T1 sequence (P25098 1-689): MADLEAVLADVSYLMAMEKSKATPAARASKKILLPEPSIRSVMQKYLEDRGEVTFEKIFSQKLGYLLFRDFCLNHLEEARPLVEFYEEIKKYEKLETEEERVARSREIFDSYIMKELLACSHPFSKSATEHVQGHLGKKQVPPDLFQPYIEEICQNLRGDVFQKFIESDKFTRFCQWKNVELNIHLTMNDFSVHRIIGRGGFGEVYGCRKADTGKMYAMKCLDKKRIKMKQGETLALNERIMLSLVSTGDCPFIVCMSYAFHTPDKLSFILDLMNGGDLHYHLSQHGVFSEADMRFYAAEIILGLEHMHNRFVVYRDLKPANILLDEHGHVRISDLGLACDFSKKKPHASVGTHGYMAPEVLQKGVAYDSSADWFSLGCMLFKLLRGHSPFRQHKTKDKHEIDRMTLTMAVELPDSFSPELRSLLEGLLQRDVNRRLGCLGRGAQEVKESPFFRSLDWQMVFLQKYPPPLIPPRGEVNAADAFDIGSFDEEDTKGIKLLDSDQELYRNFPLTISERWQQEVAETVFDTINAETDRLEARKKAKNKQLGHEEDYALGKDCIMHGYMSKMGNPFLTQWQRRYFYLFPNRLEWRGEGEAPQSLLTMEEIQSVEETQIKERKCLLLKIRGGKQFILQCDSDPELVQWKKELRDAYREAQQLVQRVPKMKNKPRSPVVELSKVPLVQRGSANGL
Kind of series: Inhibitory activity against GRK2. Type of series: biochemical. As to conditions: read-out: Inhibition of GRK2.

The nature of a further series: Cytotoxicity, HFL-1. The following applies: human, HFL-1 cells. It counts as cell-based.
Another series concerns the target hERG channel (Homo sapiens, UniProt Q12809). Kind of series: Patch clamp for the hERG channel. Type of series: cell-based. For orientation: The patch-clamp technique gives a direct electrical read-out from membranes.
A further series in a line: Cytotoxicity, L929. Type of series: cell-based. The following applies: mouse, L929 cells.
The nature of another series: in vivo. As to conditions: Sprague-Dawley (S.D.), rat, iv, 10 mg/kg, Kp (ratio of tissue to plasma concentration), 10 mg/kg i.v.
The nature of series [2]: Pharmacokinetic study in rats. It counts as in vivo. The following applies: rat.
[3] abbreviates: 30 mg/kg/day p.o., 12 weeks after MI.
The mark [4] stands for this setting: Sprague-Dawley (S.D.), plasma, iv, 5 mg/kg.
Setting [5] is: Sprague-Dawley (S.D.), plasma, po, 300 mg/kg.

hERG channel, sequence (Q12809 whole entry): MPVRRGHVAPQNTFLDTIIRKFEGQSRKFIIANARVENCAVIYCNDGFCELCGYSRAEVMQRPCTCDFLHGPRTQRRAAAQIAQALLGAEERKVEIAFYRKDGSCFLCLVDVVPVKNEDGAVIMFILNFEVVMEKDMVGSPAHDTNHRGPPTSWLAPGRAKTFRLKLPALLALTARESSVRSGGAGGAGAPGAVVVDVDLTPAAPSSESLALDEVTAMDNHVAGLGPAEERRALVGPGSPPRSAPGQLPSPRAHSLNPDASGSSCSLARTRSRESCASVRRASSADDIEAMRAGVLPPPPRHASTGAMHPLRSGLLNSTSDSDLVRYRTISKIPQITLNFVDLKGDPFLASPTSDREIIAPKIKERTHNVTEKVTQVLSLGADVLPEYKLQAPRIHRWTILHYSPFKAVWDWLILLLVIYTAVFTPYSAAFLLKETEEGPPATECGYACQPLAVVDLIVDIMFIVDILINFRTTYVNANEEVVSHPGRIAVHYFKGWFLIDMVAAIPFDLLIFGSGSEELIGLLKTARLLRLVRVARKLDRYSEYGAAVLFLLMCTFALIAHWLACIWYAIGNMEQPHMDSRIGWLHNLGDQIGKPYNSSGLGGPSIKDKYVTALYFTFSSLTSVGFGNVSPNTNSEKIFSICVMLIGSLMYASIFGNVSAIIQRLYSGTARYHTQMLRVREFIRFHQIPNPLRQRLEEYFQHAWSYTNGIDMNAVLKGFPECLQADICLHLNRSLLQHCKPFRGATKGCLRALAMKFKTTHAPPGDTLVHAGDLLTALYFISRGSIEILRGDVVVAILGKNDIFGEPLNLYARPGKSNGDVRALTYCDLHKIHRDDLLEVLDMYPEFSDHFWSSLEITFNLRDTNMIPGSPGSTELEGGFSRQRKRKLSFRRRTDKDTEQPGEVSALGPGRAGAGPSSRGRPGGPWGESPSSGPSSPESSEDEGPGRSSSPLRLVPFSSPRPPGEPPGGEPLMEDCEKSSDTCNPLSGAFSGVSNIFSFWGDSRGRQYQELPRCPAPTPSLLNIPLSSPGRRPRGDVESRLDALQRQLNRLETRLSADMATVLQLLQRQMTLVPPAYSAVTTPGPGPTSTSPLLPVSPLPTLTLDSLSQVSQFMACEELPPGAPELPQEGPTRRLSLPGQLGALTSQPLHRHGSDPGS

`C[C@H](CS)C(=O)N1CCC[C@H]1C(=O)O` [captopril, reference compound]: the Survival rate with S.D. rats (setting [3]) was 67%.

Turning to `CC(C)c1ccc2oc3nc(N)c(C(=O)O)cc3c(=O)c2c1` [amlexanox, reference compound], in [1], the “Effect on angiotensin II-induced cellular hypertrophy (cell surface area)” value is “concentration-dependently inhibited”. For the same compound, the “Effect on angiotensin II-induced phosphorylation of HDAC5” value in the series on HDAC5 phosphorylation was “effectively downregulated”.

`NCCCNCCCCNCCCNc1cc2nc(-c3ccccc3Cl)[nH]c(=O)c2cc1F` [KR-39038, 7-((3-((4-((3-aminopropyl)amino)butyl)amino)propyl)amino)-2-(2-chlorophenyl)-6-fluoroquinazolin-4(3H)-one]: the “Effect on angiotensin II-induced cellular hypertrophy (cell surface area)” value in [1] is “concentration-dependently inhibited”. Besides, the “Reduction in the left ventricular weight” value in the series with C57BL/6 mice came out at 43%. In addition, the concentration for a half-maximal effect (EC50) in “Cytotoxicity, VERO” was greater than 100 µM; in “Cytotoxicity, NIH3T3”, 61.1 µM; in “Cytotoxicity, HFL-1”, greater than 100 µM; in the series “Cytotoxicity, L929” it was 89.9 µM. In addition, the inhibition at 10 µM on GRK2 worked out at 5.9%. In addition, the Survival rate with S.D. rats (10 mg/kg/day p.o., 12 weeks after MI) turned out to be 80%; in the series on S.D. rats (setting [3]), 73%. The Fractional shortening in the series on S.D. rats (10 mg/kg/day p.o.) is on record as 23.4 ± 1.6%; in the series with S.D. rats (30 mg/kg/day p.o.), 22.6 ± 1.3%. Moreover, the “Left ventricular ejection fraction” value worked out at 44.3 ± 2.6% in the series with S.D. rats (10 mg/kg/day p.o.) and 43.4 ± 2.3% in the series on S.D. rats (30 mg/kg/day p.o.). The compound further gave an Interstitial fibrosis in the series with S.D. rats (setting [3]) of 16.3 ± 1.6%. Also, the Myocyte cross-sectional area in the series on S.D. rats (setting [3]) was determined as 420.1 ± 21.2 µm^2. The same compound yielded an IC50 against hERG channel greater than 50 µM. Besides, the partition ratio (Kp) at 4 h in the series “in vivo” (brain) amounted to 11.3; in the series “in vivo” (heart) it was 16.9; in “in vivo” (kidney), 26.3; in the series “in vivo” (liver), 10.4; in the series “in vivo” (lung) it was 2.7; in “in vivo” (plasma), 1. Further, the “Effect on angiotensin II-induced phosphorylation of HDAC5” value in the series with HDAC5 phosphorylation is on record as “effectively downregulated”. Also, the AUC(0-inf) is 3400 ± 1000 ng·h/mL in series [2] (setting [4]); 3400 ± 1000 ng·h/mL in series [2] (Sprague-Dawley (S.D.), plasma, iv, 10 mg/kg); 8900 ± 5000 ng·h/mL in series [2] (setting [5]). Further, in [2] (setting [4]), the Vd is 1.2 ± 0.2 L/kg. Also, the clearance in [2] (setting [4]) was 26.7 mL/min/kg. Further, the half-life in series [2] (setting [4]) is 42 ± 2.4 min; in [2] (setting [5]), 138 ± 174 min. For the same compound, the highest level in series [2] (setting [5]) (Cmax) was 5200 ± 2800 ng/mL. In [2] (setting [5]), the time to peak (Tmax) turned out to be 42 ± 12 min. Also, the “F (oral bioavailability)” value in series [2] (300 mg/kg p.o., 300 mg/kg) came out at 4.3 ± 2.4%.

As usually defined, the EC50 is the concentration giving half of the maximal effect. Read a high EC50 as a need for much substance. By inhibition is commonly meant how much of the control response was suppressed. A word on the IC50: it is the concentration needed to halve the response being measured. By Kp is commonly meant tissue or fluid exposure divided by exposure in the circulation. What is called AUC(0-inf) is the area under the concentration-time curve extrapolated to infinity. Usually Vd stands for a proportionality between amount in the body and measured concentration, not a real space. Read a high Vd as wide distribution into tissue. Usually clearance stands for a measure of how efficiently the substance is removed, as volume per time. Low readings indicate a low capacity for elimination, high ones a high capacity for elimination. As a reminder, the half-life is the time needed for the level to fall by half in the phase considered. Read a high half-life as slow decline. The term Cmax denotes the highest concentration seen after dosing. For orientation: Tmax means the time at which the peak concentration occurs.
